For this assay, the target named is human GLP1R (Homo sapiens, UniProt P43220). As to the kind of experiment: Human GLP1R DERET internalization assay. The class given is cell-based. Conditions: HEK293-SNAP-hGLP1R-GloSensor cells; for EC50: top concentration 30 μM; for Emax: relative to GLP1(7-36). On the procedure: Compounds of formula (I) according to the invention were tested in the following cellular assays that measure the intracellular cAMP concentration, beta-arrestin recruitment and receptor internalization. The cAMP is generated by the activation of GLP1R. The extent to which the GLP1R is internalized into the cell and away from the plasma membrane following activation is also shown in Table 2. EC50 for each assay is defined as the concentration of the compound that leads to half of the maximum response (after baseline correction). Emax is defined as the maximum response observed for the test compound, normalized to the maximum response observed for the endogenous ligand (GLP1(7-36)) to GLP1R.
Human GLP1R DERET Internalization Assay
The extent to which agonists internalize the human GLP1R was determined based on an optimized version of a RealTime FRET-based ‘DERET’ (Dissociation Enhanced Resonance Energy Transfer) assay. The technology relies on labeling of the SNAP-tagged GPCR with a SNAP-Lumi-Terbium (donor fluorophore, Cisbio, cat #SSNPTBD). The compounds are incubated with the cells over-expressing the GPCR of interest in the presence of an excess of fluorescein (acceptor fluorophore). When the GPCR is on the cell surface, the donor signal is quenched by the acceptor and the donor/acceptor ratio is low. As the GPCR internalizes, the donor signal is no longer quenched, and the acceptor is no longer excited so the donor/acceptor ratio increases.
HEK293-SNAP-hGLP1R-GloSensor cells (stably overexpressing SNAP-tagged hGLP1R) were seeded overnight in white 384-well poly-D-Lysine coated plates (Greiner Bio One, cat #781945) in regular DMEM growth medium (Gibco, cat #11965-092, 10% heat-inactivated FBS, 10 mM HEPES, 1× penicillin/streptomycin, 0.5 mg/mL geneticin (Gibco, cat #10131-035) and 0.25 mg/mL hygromycin B (Invitrogen, cat #10687010). On the assay day, cell medium was removed and 100 nM SNAP-Lumi-Tb reagent was added in Opti-MEM solution. The cells were incubated at 37° C. for 1 h. Cells were washed using a plate washer in assay buffer [1×HBSS (10× Gibco, cat #14065-056), 20 mM Hepes (Gibco, cat #15630-080), 1 mM CaCl2 (Fluka, cat #21114-1L), 1 mM MgCl2 (Ambion, cat #AM9530G) pH7.4], and 20 μL buffer with 0.1% BSA was added to each well. After leaving cells to equilibrate for […] at 37° C., 10 μL of Fluorescein (sodium salt, Sigma, cat #F6377, diluted in buffer) was added at 25 μM final concentration. To generate triplicate dose response curves, compounds were serially diluted 3-fold in assay buffer, then added to the cell assay plate to a final volume of 40 μL and final top concentrations starting at 30 μM. In the same plate and assay buffer as the tested compounds, a GLP1 (7-36) peptide (Bachem, cat #H-6795) control curve was included at a final top concentration of 1 μM in order to establish EC100. EC0 wells with buffer only were also included. The plate FRET fluorescence was measured immediately using a Perkin Elmer Envision with LANCE/DELFIA D400 single mirror, excitation filter X320, and emission filters M615_203 (donor emission) and M515 (acceptor emission), and then measured every 30 min. […] Plates were kept at 37° C. between reads. Data was expressed as the ratio of donor/acceptor emissions using Microsoft Excel and plotted in GraphPad Prism. In order to determine EC50 and Emax for internalization, data was calculated and expressed as percent of the GLP1 (7-36) EC100 control wells: [(sample signal−mean EC0 signal)/(mean EC100 of GLP1 (7-36) signal−mean EC0 signal)]*100 using Microsoft Excel. Curve fitting for EC50 determinations was performed using GraphPad Prism. The 4-parameter logistic model, Hill slope was used:
where Y is the functional response; X is the compound concentration; bottom is A0 or the minimum value (at 0 dose); top is Ainf or the maximum value (at infinite dose); EC50 is the point of inflection (i.e. the point on the sigmoid shaped curve halfway between A0 and Ainf). […]

Where only a bound is given, the exact number is not on record here.

Sequence of human GLP1R (P43220 24-463): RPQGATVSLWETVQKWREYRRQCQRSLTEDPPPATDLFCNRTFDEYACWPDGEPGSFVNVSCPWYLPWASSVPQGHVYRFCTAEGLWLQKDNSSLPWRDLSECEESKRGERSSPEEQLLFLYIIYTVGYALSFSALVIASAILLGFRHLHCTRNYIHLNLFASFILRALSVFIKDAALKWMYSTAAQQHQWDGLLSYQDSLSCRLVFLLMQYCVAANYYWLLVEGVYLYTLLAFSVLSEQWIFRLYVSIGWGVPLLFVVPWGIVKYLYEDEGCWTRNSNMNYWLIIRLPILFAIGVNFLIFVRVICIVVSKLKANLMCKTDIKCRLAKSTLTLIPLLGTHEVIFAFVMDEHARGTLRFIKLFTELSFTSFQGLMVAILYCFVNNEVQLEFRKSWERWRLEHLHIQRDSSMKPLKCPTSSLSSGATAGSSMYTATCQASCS

`Cc1nc(CN2CCC(c3cccc4c3O[C@@](C)(c3ccc(Cl)cc3F)O4)CC2)n(C[C@@H]2CCO2)c1-c1nc(C(=O)O)c(C)o1` [Compound C-1, 2-(2-((4-((S)-2-(4-chloro-2-fluorophenyl)-2-methylbenzo[d][1,3]dioxol-4-yl)piperidin-1-yl)methyl)-4-methyl-1-(((S)-oxetan-2-yl)methyl)-1H-imidazol-5-yl)-5-methyloxazole-4-carboxylic acid] gave an EC50 greater than 30 µM and an Emax of 8%.

`C[C@]1(c2ccc(Cl)cc2F)Oc2cccc(C3CCN(Cc4nc(C(F)(F)F)c(-c5nc(C(=O)O)co5)n4C[C@@H]4CCO4)CC3)c2O1` [Compound C-4, 2-(2-((4-((S)-2-(4-chloro-2-fluorophenyl)-2-methylbenzo[d][1,3]dioxol-4-yl)piperidin-1-yl)methyl)-1-(((S)-oxetan-2-yl)methyl)-4-(trifluoromethyl)-1H-imidazol-5-yl)oxazole-4-carboxylic acid]: the 50% effective concentration (EC50) was greater than 30 µM and the Emax is 1%.

As to `CCc1nc(CN2CCC(c3cccc4c3O[C@@](C)(c3ccc(Cl)cc3F)O4)CC2)n(C[C@@H]2CCO2)c1-c1nc(C(=O)O)co1` [Compound C-5, 2-(2-((4-((S)-2-(4-chloro-2-fluorophenyl)-2-methylbenzo[d][1,3]dioxol-4-yl)piperidin-1-yl)methyl)-4-ethyl-1-(((S)-oxetan-2-yl)methyl)-1H-imidazol-5-yl)oxazole-4-carboxylic acid], the EC50 is greater than 30 µM and the Emax amounted to 6%.

`CCc1nc(CN2CCC(c3cccc4c3O[C@@](C)(c3ccc(Cl)cc3F)O4)CC2)n(C[C@H]2CCO2)c1-c1nc(C(=O)O)co1` [Compound C-7, 2-(2-((4-((S)-2-(4-chloro-2-fluorophenyl)-2-methylbenzo[d][1,3]dioxol-4-yl)piperidin-1-yl)methyl)-4-ethyl-1-(((R)-oxetan-2-yl)methyl)-1H-imidazol-5-yl)oxazole-4-carboxylic acid]: the EC50 turned out to be 0.03 µM and the maximal effect (Emax) stood at 51%.

Consider `Cc1nc(CN2CCC(c3cccc4c3O[C@@](C)(c3ccc(Cl)cc3F)O4)CC2)n(C[C@@H]2CCO2)c1-c1nc(C(=O)O)co1` [Compound C-9, 2-(2-((4-((S)-2-(4-chloro-2-fluorophenyl)-2-methylbenzo[d][1,3]dioxol-4-yl)piperidin-1-yl)methyl)-4-methyl-1-(((S)-oxetan-2-yl)methyl)-1H-imidazol-5-yl)oxazole-4-carboxylic acid], for which the EC50 was greater than 30 µM and the Emax was determined as 11%.

Molecule `CCc1oc(-c2c(C)nc(CN3CCC(c4cccc5c4O[C@@](C)(c4ccc(Cl)cc4F)O5)CC3)n2C[C@@H]2CCO2)nc1C(=O)O` [Compound C-10, 2-(2-((4-((S)-2-(4-chloro-2-fluorophenyl)-2-methylbenzo[d][1,3]dioxol-4-yl)piperidin-1-yl)methyl)-4-methyl-1-(((S)-oxetan-2-yl)methyl)-1H-imidazol-5-yl)-5-ethyloxazole-4-carboxylic acid] returned a half-maximal effective concentration (EC50) greater than 30 µM and an Emax of 7%.

The molecule `Cc1oc(-c2nc(CN3CCC(c4cccc5c4O[C@@](C)(c4ccc(Cl)cc4F)O5)CC3)n(C[C@@H]3CCO3)c2C)nc1C(=O)O` [Compound C-12, 2-(2-((4-((S)-2-(4-chloro-2-fluorophenyl)-2-methylbenzo[d][1,3]dioxol-4-yl)piperidin-1-yl)methyl)-5-methyl-1-(((S)-oxetan-2-yl)methyl)-1H-imidazol-4-yl)-5-methyloxazole-4-carboxylic acid] registered a concentration for a half-maximal effect (EC50) greater than 30 µM and an Emax of 45%.

On to `Cc1c(-c2nc(C(=O)O)co2)nc(CN2CCC(c3cccc4c3O[C@@](C)(c3ccc(Cl)cc3F)O4)CC2)n1C[C@@H]1CCO1` [Compound C-13, 2-(2-((4-((S)-2-(4-chloro-2-fluorophenyl)-2-methylbenzo[d][1,3]dioxol-4-yl)piperidin-1-yl)methyl)-5-methyl-1-(((S)-oxetan-2-yl)methyl)-1H-imidazol-4-yl)oxazole-4-carboxylic acid], for which the EC50 came out at 1.28 µM and the maximal effect (Emax) amounted to 42%.

For the molecule `Cc1c(-c2nc(C(F)(F)F)c(C(=O)O)o2)nc(CN2CCC(c3cccc4c3O[C@@](C)(c3ccc(Cl)cc3F)O4)CC2)n1C[C@@H]1CCO1` [Compound C-14, 2-(2-((4-((S)-2-(4-chloro-2-fluorophenyl)-2-methylbenzo[d][1,3]dioxol-4-yl)piperidin-1-yl)methyl)-5-methyl-1-(((S)-oxetan-2-yl)methyl)-1H-imidazol-4-yl)-4-(trifluoromethyl)oxazole-5-carboxylic acid], the EC50 is greater than 30 µM and the Emax came out at 20%.

In the case of `Cc1c(-c2cnc(C(=O)O)o2)nc(CN2CCC(c3cccc4c3O[C@@](C)(c3ccc(Cl)cc3F)O4)CC2)n1C[C@@H]1CCO1` [Compound C-16, 5-(2-((4-((S)-2-(4-chloro-2-fluorophenyl)-2-methylbenzo[d][1,3]dioxol-4-yl)piperidin-1-yl)methyl)-5-methyl-1-(((S)-oxetan-2-yl)methyl)-1H-imidazol-4-yl)oxazole-2-carboxylic acid], the EC50 is 2.94 µM and the Emax worked out at 50%.

For the molecule `Cc1c(-c2cc(C(=O)O)n(C)n2)nc(CN2CCC(c3cccc4c3O[C@@](C)(c3ccc(Cl)cc3F)O4)CC2)n1C[C@@H]1CCO1` [Compound C-17, 3-(2-((4-((S)-2-(4-chloro-2-fluorophenyl)-2-methylbenzo[d][1,3]dioxol-4-yl)piperidin-1-yl)methyl)-5-methyl-1-(((S)-oxetan-2-yl)methyl)-1H-imidazol-4-yl)-1-methyl-1H-pyrazole-5-carboxylic acid], the 50% effective concentration (EC50) is greater than 30 µM and the maximum response (Emax) worked out at 6%.

`Cc1c(-c2coc(C(=O)O)n2)nc(CN2CCC(c3cccc4c3O[C@@](C)(c3ccc(Cl)cc3F)O4)CC2)n1C[C@@H]1CCO1` [Compound C-18, 4-(2-((4-((S)-2-(4-chloro-2-fluorophenyl)-2-methylbenzo[d][1,3]dioxol-4-yl)piperidin-1-yl)methyl)-5-methyl-1-(((S)-oxetan-2-yl)methyl)-1H-imidazol-4-yl)oxazole-2-carboxylic acid] had an EC50 of 2.38 µM and an Emax of 86%.

`Cc1cc(-c2nc(CN3CCC(c4cccc5c4O[C@@](C)(c4ccc(Cl)cc4F)O5)CC3)n(C[C@@H]3CCO3)c2C)oc1C(=O)O` [Compound C-19, 5-(2-((4-((S)-2-(4-chloro-2-fluorophenyl)-2-methylbenzo[d][1,3]dioxol-4-yl)piperidin-1-yl)methyl)-5-methyl-1-(((S)-oxetan-2-yl)methyl)-1H-imidazol-4-yl)-3-methylfuran-2-carboxylic acid] had an EC50 greater than 30 µM and a maximum response (Emax) of 34%.

The molecule `Cc1nc(CN2CCC(c3cccc4c3O[C@@](C)(c3ccc(Cl)cc3F)O4)CC2)n(C[C@@H]2CCO2)c1-c1coc(C(=O)O)n1` [Compound C-20, 4-(2-((4-((S)-2-(4-chloro-2-fluorophenyl)-2-methylbenzo[d][1,3]dioxol-4-yl)piperidin-1-yl)methyl)-4-methyl-1-(((S)-oxetan-2-yl)methyl)-1H-imidazol-5-yl)oxazole-2-carboxylic acid] showed an EC50 greater than 30 µM and a maximal response (Emax) of 5%.
